This is an account of results in patent US20190365745A1, “USE OF CHRONIC TREATMENT WITH ATR INHIBITORS TO SENSITIZE CANCER CELLS TO PARP INHIBITORS” (Cornell University, priority 2018, published 2019).

The subject of experiment [1] is U2OS cancer cells. The experiment can be described thus: Crystal violet staining survival assay. It is filed as cell-based, Human. The settings on record: after 8 days of treatment, 2 or 8 days drug-free.
Experimental: First, cells were treated for 5 days with either DMSO or 5 μM ATR inhibitor. Next, 1×10^5 cells of each cell type were plated onto a 10 cm dish and further treated with DMSO, ATR inhibitor and/or PARP inhibitor for additional 3 days. Cells were either fixed or allowed to recover after additional 2 or 8 days in drug-free media.
First, hTERT RPE-1, U2OS, HCT116, HeLa, A2780, or U87 cells were treated for 5 days with either DMSO or 5 μM ATR inhibitor. Next, 1×10^5 cells of each cell type were plated onto a 10 cm dish and further treated with DMSO, ATR inhibitor, and/or PARP inhibitor for an additional 3 days. Cells were then washed with PBS and either fixed in 100% methanol for 15 minutes at 4° C. or fixed after additional 2 or 8 days of culture in drug-free media. Fixed plates were stained with 0.1% crystal violet solution overnight followed by a distilled water wash. Pictures were taken after the plates were dried. For quantitation of cell viability, total viable cells were counted using a hematocytometer after indicated treatment.
Experiment [2] has as its system U2OS cells. Nature of the experiment: Real time PCR of mRNA levels. It is filed as cell-based, Human. As to conditions: normalized to GAPDH. The text has this:
FIG. 9B is a bar graph showing the analysis of HR-mediated repair using the DR-GFP system. Relative fold change of GFP positive U2OS cells treated with CHK1i compared to DMSO treatment control. (Error bars=SEM, N=4, ****P-value<0.0001; one sample-t-test was used for the statistical analysis). FIGS. 9C-9D show a histogram showing representative FACS data (FIG. 9C) and a bar graph showing quantitation of G1, S and G2/M population for cell cycle analysis of CHK1i treated cells (FIG. 9D) (Error bars=SD, N=3). FIG. 9E are bar graphs showing real time PCR analysis of total RNA extracted from U2OS cells treated with DMSO, ATRi (5 μM for 8 days) or CHK1i (0.2 μM for 5 days). Values were normalized to GAPDH mRNA levels. (Error bars=SD, N=3). FIG. 9F is a schematic diagram showing a proposed model of how E2F transcription is regulated through ATR-CHK1 signaling. […] FIG. 9H is a bar graph showing DR-GFP analysis of 293-T-REX-E2F6 cells after 8 days of treatment with DMSO or doxycycline. (Error bars=SEM, N=4). FIG. 9I is a histogram showing cell cycle analysis of 293-T-REX-E2F6 cells after 8 days of treatment with DMSO or doxycycline. FIG. 9J is a schematic diagram showing a model depicting multiple roles of ATR in the control of HR capacity.
Cells cultured from 10 cm dish were collected and lysed in 1 ml of TRIzol (Invitrogen). Chloroform was added to the lysed sample to separate RNA. Separated RNA was precipitated by isopropyl alcohol, followed by two washes with 75% ethanol. 1 μg of extracted RNA from each sample was then reverse transcribed with Bio-Rad iScript cDNA synthesis kit. The samples (˜100 ng) were analyzed in a Roche 480 light cycler in a total of 15 μl containing SYBR green mix and primers. The values were calculated using “absolute quantification/2nd derivative max” in lightcycler 480 program and then normalized to the level of GAPDH.

For experiment [3], the system named is U2OS cells. The experiment can be described thus: SILAC/MS proteomic analysis of nuclear proteins (protein abundance). The settings on record: U2OS nuclear proteome; 5 μM ATRi, 8 days vs untreated. It is filed as cell-based, Human. Here is the method: FIG. 5A is a schematic diagram of the SILAC/MS experiment. FIG. 5B is a quadrant diagram of the SILAC/MS experiment. Each dot represents a different identified protein. Proteins with abundance reduced two-fold or more after ATRi treatment are shown in the upper-left corner (white quadrant). FIG. 5C is a WB analysis of U2OS cells after 8 days of chronic treatment with 5 μM of ATRi or ATMi. FIG. 5D is a time course WB analysis of U2OS cells during chronic treatment with 5 μM ATRi. FIG. 5E is a WB analysis of U2OS cells at distinct cell cycle stages. Cells were treated with 1 mM hydroxyurea (HU) or 50 ng/ml nocodazole (Noc) for 24 hours. HU treated cells were released for 2.5 hours in HU-free media. FIG. 5F is a WB analysis of U2OS cells untreated or treated for 8 days with 5 μM ATRi.
For quantitative proteomic analysis, U2OS cells chronically treated with DMSO or ATR inhibitor were cultured, respectively, in “light” or “heavy” SILAC DMEM media (ThermoFisher Scientific 88425) supplemented with 10% dialyzed FBS and penicillin/streptomycin. “Light” SILAC media was supplemented with “light” (normal) arginine ^12C6, […], while “heavy” SILAC media contained “heavy” lysine ^13C6, ^15N2 and “heavy” arginine ^13C6, ^15N4. […] HILIC fractions were dried and reconstituted in 0.1% trifluoroacetic acid and analyzed using a Q-Exactive Orbitrap and Lumos mass spectrometer. […]

Experiment [4] has as its target T1, ATR (Homo sapiens, UniProt Q13535).
T1 construct: endogenous in cells; host or cells: U2OS (human osteosarcoma)
Nature of the experiment: Western blot of phospho-CHK1(S345) in HU-treated cells. It is filed as cell-based. The settings on record: 5 μM ATRi; HU-treated U2OS cells. As to the method: FIG. 3 is a Western Blot (“WB”) of U2OS cells treated with ATRi for 30 minutes prior to a 3-hour HU treatment. WB analysis was performed against phospho-CHK1(S345), CHK1 and Actin.
Cells were harvested and lysed in modified radioimmunoprecipitation assay (RIPA) buffer (50 mM Tris-HCl pH 7.5, 150 mM NaCl, 1% tergitol, 0.25% sodium deoxycholate, 5 mM EDTA) supplemented with Complete EDTA-free protease inhibitor cocktail (Roche), 1 mM PMSF, 5 mM sodium fluoride, 10 mM β-glycerol-phosphate and 0.4 mM sodium orthovanadate. Whole cell lysates were cleared with 5 minute centrifugation at 13,000 rpm at 4° C. and mixed with 3×SDS sample buffer (bromophenol blue, stacking gel buffer, 50% glycerol, 3% SDS and 60 mM DTT). After being resolved on SDS-PAGE gels, proteins were then transferred onto polyvinylidene difluoride (PVDF) membranes and detected with designated antibodies.
In general terms: Immunoblotting shows a protein as a band on a membrane.

T1 sequence (Q13535 whole entry): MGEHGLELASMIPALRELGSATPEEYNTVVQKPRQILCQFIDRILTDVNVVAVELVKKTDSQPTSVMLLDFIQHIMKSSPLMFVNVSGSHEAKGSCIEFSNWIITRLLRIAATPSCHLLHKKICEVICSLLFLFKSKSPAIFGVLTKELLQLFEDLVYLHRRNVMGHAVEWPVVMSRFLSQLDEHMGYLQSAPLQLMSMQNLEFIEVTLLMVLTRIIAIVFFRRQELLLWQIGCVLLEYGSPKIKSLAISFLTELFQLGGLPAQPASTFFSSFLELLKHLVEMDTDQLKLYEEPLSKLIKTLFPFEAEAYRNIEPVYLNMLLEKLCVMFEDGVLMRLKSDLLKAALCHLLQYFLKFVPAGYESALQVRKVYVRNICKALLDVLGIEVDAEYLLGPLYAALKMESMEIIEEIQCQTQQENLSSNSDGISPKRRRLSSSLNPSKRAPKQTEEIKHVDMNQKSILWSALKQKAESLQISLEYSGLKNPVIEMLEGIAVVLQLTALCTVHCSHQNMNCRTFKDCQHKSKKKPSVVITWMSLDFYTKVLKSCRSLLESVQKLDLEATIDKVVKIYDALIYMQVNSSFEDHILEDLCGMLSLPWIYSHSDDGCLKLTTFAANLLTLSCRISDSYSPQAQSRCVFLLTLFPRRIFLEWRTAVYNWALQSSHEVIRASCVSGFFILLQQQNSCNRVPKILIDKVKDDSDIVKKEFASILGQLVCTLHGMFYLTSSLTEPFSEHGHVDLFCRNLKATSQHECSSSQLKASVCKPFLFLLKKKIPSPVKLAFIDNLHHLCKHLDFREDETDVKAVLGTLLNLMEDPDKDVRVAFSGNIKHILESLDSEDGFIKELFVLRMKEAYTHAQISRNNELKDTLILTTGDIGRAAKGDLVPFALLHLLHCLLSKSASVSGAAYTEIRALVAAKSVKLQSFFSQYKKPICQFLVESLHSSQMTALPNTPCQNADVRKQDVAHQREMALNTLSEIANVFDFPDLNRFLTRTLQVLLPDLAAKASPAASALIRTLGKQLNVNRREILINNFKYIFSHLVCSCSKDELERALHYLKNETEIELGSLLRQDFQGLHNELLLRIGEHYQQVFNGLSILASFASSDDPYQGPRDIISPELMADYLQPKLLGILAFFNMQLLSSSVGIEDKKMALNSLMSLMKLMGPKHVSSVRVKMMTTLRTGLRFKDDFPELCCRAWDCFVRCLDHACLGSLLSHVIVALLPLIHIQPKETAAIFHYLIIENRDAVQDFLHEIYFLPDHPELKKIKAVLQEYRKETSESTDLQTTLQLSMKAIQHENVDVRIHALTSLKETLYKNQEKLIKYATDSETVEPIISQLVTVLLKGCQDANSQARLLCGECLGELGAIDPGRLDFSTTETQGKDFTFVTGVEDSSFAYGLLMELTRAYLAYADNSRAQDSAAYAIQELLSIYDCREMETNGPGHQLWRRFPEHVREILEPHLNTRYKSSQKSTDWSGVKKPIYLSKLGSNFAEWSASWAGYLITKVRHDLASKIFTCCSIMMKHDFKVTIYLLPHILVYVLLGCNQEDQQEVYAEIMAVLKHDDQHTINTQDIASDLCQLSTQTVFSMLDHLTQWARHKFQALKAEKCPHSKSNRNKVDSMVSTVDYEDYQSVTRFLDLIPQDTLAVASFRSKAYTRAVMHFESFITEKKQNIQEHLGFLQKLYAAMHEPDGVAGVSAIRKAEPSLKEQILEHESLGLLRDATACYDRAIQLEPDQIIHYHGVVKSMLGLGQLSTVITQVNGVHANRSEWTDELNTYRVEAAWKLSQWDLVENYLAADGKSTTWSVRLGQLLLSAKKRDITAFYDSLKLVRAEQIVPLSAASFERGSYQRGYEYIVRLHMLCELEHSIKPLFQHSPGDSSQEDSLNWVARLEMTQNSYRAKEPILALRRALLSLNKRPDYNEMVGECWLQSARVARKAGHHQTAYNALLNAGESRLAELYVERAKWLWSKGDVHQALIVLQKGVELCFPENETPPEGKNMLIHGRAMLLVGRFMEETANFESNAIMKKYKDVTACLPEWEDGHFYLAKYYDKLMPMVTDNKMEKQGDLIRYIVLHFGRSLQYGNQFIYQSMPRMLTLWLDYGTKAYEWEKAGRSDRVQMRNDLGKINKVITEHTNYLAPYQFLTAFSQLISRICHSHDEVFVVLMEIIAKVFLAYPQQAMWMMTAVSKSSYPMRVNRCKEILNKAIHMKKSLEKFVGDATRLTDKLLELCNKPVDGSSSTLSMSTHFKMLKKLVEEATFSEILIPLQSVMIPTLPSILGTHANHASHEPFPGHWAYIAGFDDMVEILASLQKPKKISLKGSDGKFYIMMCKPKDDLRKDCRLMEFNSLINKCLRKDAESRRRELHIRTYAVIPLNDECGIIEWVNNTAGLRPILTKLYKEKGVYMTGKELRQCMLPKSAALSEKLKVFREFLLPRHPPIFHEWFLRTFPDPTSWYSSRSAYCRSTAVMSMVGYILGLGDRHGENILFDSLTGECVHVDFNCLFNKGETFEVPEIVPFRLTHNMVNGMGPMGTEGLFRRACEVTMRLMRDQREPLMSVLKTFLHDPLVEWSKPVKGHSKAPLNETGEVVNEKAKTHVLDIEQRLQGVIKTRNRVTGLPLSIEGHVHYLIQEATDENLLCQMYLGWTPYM
T1 sequence (Q8WXE1 whole entry partner): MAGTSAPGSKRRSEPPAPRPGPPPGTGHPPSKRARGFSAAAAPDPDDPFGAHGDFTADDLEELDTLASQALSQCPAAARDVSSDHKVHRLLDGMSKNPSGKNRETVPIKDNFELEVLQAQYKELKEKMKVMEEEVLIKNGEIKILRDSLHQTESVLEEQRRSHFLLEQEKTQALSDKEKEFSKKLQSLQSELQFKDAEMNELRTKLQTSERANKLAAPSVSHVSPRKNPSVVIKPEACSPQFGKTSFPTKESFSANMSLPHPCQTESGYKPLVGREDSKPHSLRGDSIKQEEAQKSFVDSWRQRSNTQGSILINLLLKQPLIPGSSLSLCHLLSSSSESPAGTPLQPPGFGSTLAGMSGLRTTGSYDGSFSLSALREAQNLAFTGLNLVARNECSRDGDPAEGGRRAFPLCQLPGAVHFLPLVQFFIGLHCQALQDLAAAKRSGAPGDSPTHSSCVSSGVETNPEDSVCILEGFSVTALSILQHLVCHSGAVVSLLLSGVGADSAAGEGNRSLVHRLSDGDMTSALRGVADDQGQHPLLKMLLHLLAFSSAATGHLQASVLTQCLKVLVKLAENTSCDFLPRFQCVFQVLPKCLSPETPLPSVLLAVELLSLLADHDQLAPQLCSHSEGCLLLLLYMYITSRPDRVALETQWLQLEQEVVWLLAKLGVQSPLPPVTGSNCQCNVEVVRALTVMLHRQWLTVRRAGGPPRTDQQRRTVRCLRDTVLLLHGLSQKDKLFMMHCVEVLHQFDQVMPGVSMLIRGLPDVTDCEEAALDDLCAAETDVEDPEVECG

`CS(=O)(=O)c1ccc(-c2cnc(N)c(C(=O)Nc3ccccc3)n2)cc1` [ATRi, VE-821]: the “Recovery in drug-free media (crystal violet)” value in experiment [1] was “recovered after switching to drug-free media”. The “mRNA levels of BRCA1 and RAD51” value in experiment [2] (ATRi 5 μM 8 days or CHK1i 0.2 μM 5 days) was “reduction in the mRNA levels of BRCA1 and RAD51”. Also, in experiment [2] (ATRi 5 μM 8 days), the “mRNA levels of 53BP1” value is “major changes in the mRNA levels of 53BP1 were not observed”. Also, in experiment [3], the “Abundance of proteins required for HR-mediated repair, including BRCA1 and FANCJ (SILAC/MS)” value is given as “reduced”. Also, the “ATR inhibition monitored by CHK1 phosphorylation” value in experiment [4] was “almost complete ATR inhibition”.
